{"source": "patent US10266513B2", "about": "(Pfizer Inc., priority 2012, dated 2019)", "data": [{"biological_target": "human full-length BTK Kinase (Homo sapiens (Human), UniProt Q06187)", "sequence (Q06187 whole entry)": "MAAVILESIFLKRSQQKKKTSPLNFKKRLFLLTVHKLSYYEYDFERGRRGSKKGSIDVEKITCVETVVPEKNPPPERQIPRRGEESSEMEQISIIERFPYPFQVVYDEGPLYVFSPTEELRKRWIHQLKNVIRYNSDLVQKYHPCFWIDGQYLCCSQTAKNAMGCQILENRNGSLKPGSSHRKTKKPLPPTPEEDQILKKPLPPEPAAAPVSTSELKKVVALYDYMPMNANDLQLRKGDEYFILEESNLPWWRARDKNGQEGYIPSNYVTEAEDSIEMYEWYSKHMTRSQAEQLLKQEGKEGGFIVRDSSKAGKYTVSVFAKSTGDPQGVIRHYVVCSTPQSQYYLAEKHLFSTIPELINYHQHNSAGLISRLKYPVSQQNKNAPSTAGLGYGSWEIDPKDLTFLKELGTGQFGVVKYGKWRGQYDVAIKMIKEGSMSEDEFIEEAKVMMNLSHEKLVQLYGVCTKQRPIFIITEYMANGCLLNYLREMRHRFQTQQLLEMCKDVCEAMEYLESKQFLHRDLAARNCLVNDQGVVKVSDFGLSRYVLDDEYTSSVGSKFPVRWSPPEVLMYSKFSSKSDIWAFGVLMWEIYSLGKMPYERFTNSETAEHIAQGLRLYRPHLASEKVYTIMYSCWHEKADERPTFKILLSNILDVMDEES", "test": "Human BTK LanthaScreen Assay (TR-FRET)", "type": "biochemical", "details": "50 μM ATP, FAM-Srctide peptide substrate, read-out: BTK Inhibition IC50", "excerpt": "Human BTK LanthaScreen Assay", "units": {"IC50": "nM"}, "values": [{"smiles": "N#CN1CCCC(n2nc(-c3ccc(Oc4cc(F)ccc4Cl)cc3)c(C(N)=O)c2N)C1", "note": "(centres unmarked) [Example 45, 5-amino-3-[4-(2-chloro-5-fluoro-phenoxy)phenyl]-1-(1-cyanopiperidin-3-yl)-1H-pyrazole-4-carboxamide]", "IC50": 0.81}, {"smiles": "N#CN1CCCC(n2nc(-c3ccc(Oc4ccc(F)c(OC(F)(F)F)c4)cc3)c(C(N)=O)c2N)C1", "note": "(centres unmarked) [Example 46, 5-amino-1-(1-cyanopiperidin-3-yl)-3-{4-[4-fluoro-3-(trifluoromethoxy)-phenoxy]phenyl}-1H-pyrazole-4-carboxamide]", "IC50": 6.4}, {"smiles": "COc1cc(F)ccc1Oc1ccc(-c2nn(C3CCCN(C#N)C3)c(N)c2C(N)=O)cc1", "note": "(centres unmarked) [Example 47, 5-amino-1-(1-cyanopiperidin-3-yl)-3-{4-[4-fluoro-2-methoxyphenoxy]phenyl}-1H-pyrazole-4-carboxamide]", "IC50": 1.6}, {"smiles": "COc1cccc(Oc2ccc(-c3nn(C4CCCN(C#N)C4)c(N)c3C(N)=O)cc2)c1", "note": "(centres unmarked) [Example 48, 5-amino-1-(1-cyanopiperidin-3-yl)-3-[4-(3-methoxyphenoxy)phenyl]-1H-pyrazole-4-carboxamide]", "IC50": 0.44}, {"smiles": "N#CN1CCCC(n2nc(-c3ccc(Oc4cc(Cl)ccc4F)cc3)c(C(N)=O)c2N)C1", "note": "(centres unmarked) [Example 49, 5-amino-3-[4-(5-chloro-2-fluorophenoxy)phenyl]-1-(1-cyanopiperidin-3-yl)-1H-pyrazole-4-carboxamide]", "IC50": 2.2}, {"smiles": "N#CN1CCCC(n2nc(-c3ccc(Oc4ccc(Cl)cc4Cl)cc3)c(C(N)=O)c2N)C1", "note": "(centres unmarked) [Example 50, 5-amino-1-(1-cyanopiperidin-3-yl)-3-[4-(2,4-dichlorophenoxy)phenyl]-1H-pyrazole-4-carboxamide]", "IC50": 1.8}, {"smiles": "N#CN1CCCC(n2nc(-c3ccc(Oc4cc(F)cc(Cl)c4)cc3)c(C(N)=O)c2N)C1", "note": "(centres unmarked) [Example 51, 5-amino-3-[4-(3-chloro-5-fluoro-phenoxy)phenyl]-1-(1-cyanopiperidin-3-yl)-1H-pyrazole-4-carboxamide]", "IC50": 1.9}, {"smiles": "N#CN1CCCC(n2nc(-c3ccc(Oc4ccccc4C(F)(F)F)cc3)c(C(N)=O)c2N)C1", "note": "(centres unmarked) [Example 52, 5-amino-1-(1-cyanopiperidin-3-yl)-3-{4-[2-(trifluoromethyl)phenoxy]-phenyl}-1H-pyrazole-4-carboxamide]", "IC50": 2.9}, {"smiles": "N#CN1CCCC(n2nc(-c3ccc(Oc4cccc(Cl)c4)cc3)c(C(N)=O)c2N)C1", "note": "(centres unmarked) [Example 53, 5-amino-3-[4-(3-chlorophenoxy)-phenyl]-1-(1-cyanopiperidin-3-yl)-1H-pyrazole-4-carboxamide]", "IC50": 1.7}, {"smiles": "Cc1c(F)cccc1Oc1ccc(-c2nn(C3CCCN(C#N)C3)c(N)c2C(N)=O)cc1", "note": "(centres unmarked) [Example 54, 5-amino-1-(1-cyanopiperidin-3-yl)-3-[4-(3-fluoro-2-methylphenoxy)phenyl]-1H-pyrazole-4-carboxamide]", "IC50": 1.2}, {"smiles": "N#CN1CCCC(n2nc(-c3ccc(Oc4cc(Cl)ccc4Cl)cc3)c(C(N)=O)c2N)C1", "note": "(centres unmarked) [Example 55, 5-amino-1-(1-cyanopiperidin-3-yl)-3-[4-(2,5-dichlorophenoxy)phenyl]-1H-pyrazole-4-carboxamide]", "IC50": 2.2}, {"smiles": "N#CN1CCCC(n2nc(-c3ccc(Oc4ccccc4Cl)cc3)c(C(N)=O)c2N)C1", "note": "(centres unmarked) [Example 56, 5-amino-3-[4-(2-chlorophenoxy)-phenyl]-1-(1-cyanopiperidin-3-yl)-1H-pyrazole-4-carboxamide]", "IC50": 1.3}, {"smiles": "N#CN1CCCC(n2nc(-c3ccc(Oc4cccc(Cl)c4F)cc3)c(C(N)=O)c2N)C1", "note": "(centres unmarked) [Example 57, 5-amino-3-[4-(3-chloro-2-fluoro-phenoxy)phenyl]-1-(1-cyanopiperidin-3-yl)-1H-pyrazole-4-carboxamide]", "IC50": 3.1}, {"smiles": "N#CN1CCCC(n2nc(-c3ccc(Oc4ccc(F)c(Cl)c4)cc3)c(C(N)=O)c2N)C1", "note": "(centres unmarked) [Example 58, 5-amino-3-[4-(3-chloro-4-fluoro-phenoxy)phenyl]-1-(1-cyanopiperidin-3-yl)-1H-pyrazole-4-carboxamide]", "IC50": 1.8}]}]}
